Results as given in patent US8518889B2, “Method of treating cancer with antibodies against long-form leukotriene B4 receptor BLT2” (Korea University Research & Business Foundation, priority 2007, dated 2013).

Tests used:
MCF-7 cells = test: Western blot analysis of PARP and caspase-9; format: cell-based, human; settings: LY255283 10 μM, epirubicin 100 ng/ml
LNCaP cells = test: cell cycle analysis (PI, flow cytometry); format: cell-based, human; settings: 5 μM, 48 hr
Description: (§1) After LNCaP cells and PWR-1E cells were treated with 5 μM LY255283 for 48 hr, the cells were fixed with 70% ethanol and stained with Pl. Cell cycle was analyzed using flow cytometry. The cells grown in 6-well cluster dishes were stimulated with 5 μM LY255283 for 48 h in serum free RPMI 1640. The cells which were collected by brief trypsinization were fixed for 12 hr with 70% ethanol at 4° C. The cells were resuspended in PBS containing RNase A (100 μg/ml) and incubated for 30 min at 37° C. The cells were stained with propidium iodide (50 μg/ml) (Sigma). Acquisition and analysis was performed by FACS using Cell Quest Alias software (BD Bioscience).

PWR-1E cells [1] = test: MTT assay, cell viability; format: cell-based; settings: increasing concentration, 48 hr, serum free RPMI 1640
Description: The effect of LY255283, BLT2 antagonist, on cell viability was examined by MTT assay. PWR-1E cells were seeded at a density of 1.0×10^4 cells/well and LNCaP cells were seeded at a density of 1.5×10^4 cells/well in 96-well culture dishes. After 36 hr, the medium was replaced with serum free RPMI 1640 and cells were stimulated with DMSO or LY255283 of increasing concentration. MTT (1 mg/mu) was added at 48 hr after LY255283 treatment and after 4 hr of further incubation the medium was replaced with DMSO. Then cells were incubated at room temperature for 10 min. The spectrophotometric absorbance of the samples was determined by using Ultra Multifunctional Microplate Reader at 540 nm. LNCaP cells and PWR-1E cells were stimulated with LY255283 of various concentration in serum free RPM11640.

PWR-1E cells [2] = test: cell cycle analysis / apoptosis measurement; format: cell-based; settings: 5 μM, 48 hr
Description: as §1

SV-HUC-1 cells = test: cell cycle analysis (PI, flow cytometry); format: cell-based; settings: 48 hr, RPMI 1640 with 0.5% FBS
Description: The cells grown in 6-well plate were stimulated with 5 μM and 10 μM LY255283, 1 μM U75302 for 48 h in RPMI 1640 containing 0.5% FBS. The cells which were collected by brief trypsinization were fixed overnight with 70% ethanol at 4° C. The cells were resuspended in PBS containing RNase A (100 μg/ml) and incubated for 30 min at 37° C. The cells were stained with propidium iodide (50 μg/ml) (Sigma). Acquisition and analysis was performed by FACS using Cell Quest Alias software (BD Bioscience). […] Cells were treated with BLT antagonist for 48 hours and the cell cycle population was measured by flow cytometry. In brief, cells were plated in 6 well plate and then treated with LY255283, U75302 for 48 hr. At the end of the treatment, the cells were harvested and then centrifuged. The cells fixed in ice-cold 70% ethanol for 24 hr and centrifuged. The pellet were resuspended in 0.5 ml phosphate-buffered saline (PBS) and incubated with Pl 1 mg/ml treatment for 15 min.

Rat2-BLT2 cells = test: experimental metastasis assay, lung metastasis driven by BLT2; format: in vivo, nude mice; settings: intraperitoneal 3 and 5 days after cell injection, 21 days
Description: All experimental animals used in this study were treated according to guidelines approved by the Institutional Animal Care and Use Committee of Korea University. Female nude mice (Charles River, Wilmington, Mass.), four-weeks-old at the time of injection, were used in the experimental metastasis assay. Rat-2, Rat2-HO6, and Rat2-BLT2 cells (5×10^5 cells) were prepared for injection from cultures in logarithmic growth at the time of harvest. The cells were briefly treated with 0.025% trypsin and 0.1% EDTA in Hanks' balanced salt solution and quickly removed from trypsin by centrifugation, resuspended in saline containing LTB4, and injected within 1 hr in 0.1 ml into the lateral tail vein with a 26-gauge needle. For inhibitor experiments, U75302 and LY255283 (0.25 mg/kg for BLT1 antagonist and 2.5 mg/kg for BLT2 antagonist) was injected intraperitoneal ˜3 and 5 days after injection of cells that were pretreated with inhibitors. […]
In vivo lung metastasis driven by H-Ras^V12 (panel B of FIG. 2a) or BLT2 (panel C of FIG. 2a) was reduced by BLT2 inhibition (LY255283) based on the macroscopic and histologic appearance of lung. […] Mice were euthanized 21 days after cell injection, and the number of lung metastasis nodules and weight of lung was analyzed in each group. […] Metastasis survival was analyzed in Kaplan-Meyer plots.

Structure (SMILES) | PARP cleavage (MCF-7 cells) | sub-G1 population (LNCaP cells) | PWR-1E cell viability (MTT) (PWR-1E cells [1]) | apoptosis in prostate normal cells (PWR-1E cells [2]) | cell cycle (SV-HUC-1 cells) | lung metastasis driven by BLT2 (Rat2-BLT2 cells)
CCc1cc(C(C)=O)c(O)cc1OCCCCCC(C)(C)c1nnn[nH]1 [LY255283, 1-[5-ethyl-2-hydroxy-4-[[6-methyl-6-(1H-tetrazol-5-yl)heptyl]oxy]phenyl]-ethanone] | PARP cleavage was detectable | increased population of cells with sub-GI DNA content | no effect | but not prostate normal cells | – | –
CCCCC/C=C\C[C@@H](O)/C=C/c1cccc(C[C@@H](O)CCCCO)n1 [U75302] | – | – | – | – | not effect | caused no suppression on metastasis
